System: TNB/ethanol colitis
Assay: Intracolonic administration in rat model of chronic colitis (TNB/ethanol): macroscopic colonic damage
Assay type: in vivo, Sprague-Dawley rats
Conditions: for macroscopic damage score: after four weeks of treatment, daily enema 50 mg/kg (Formula I (1-1): zileuton equivalent), p=0.026
Method: Female virgin Sprague-Dawley rats weighing 200-250 g were used in this study. The animals were maintained in a restricted access room with controlled temperature (23° C.) and light/dark cycle (16 h:8 h). The rats were housed in individual isolated rack mounted wire cages.
TNB/ethanol colitis was induced in 90 rats. Animals were thereafter randomised into four therapeutic groups to receive daily, from day 1 (24 hours after induction of colitis):
Group A (n=30)−0.25 ml of vehicle solution enema (1-5% carboxymethylcellulose in saline serum) (placebo group).
Group B (n=30)−0.25 ml of the vehicle solution enema added with 50 mg/kg of body weight of 5-ASA.
Group C (n=30)−0-25 ml of the vehicle solution enema added with 50 mg/kg of body weight of zileuton.
Group D (n=30)−0-25 ml of the vehicle solution enema added with 50 mg/kg of body weight of Formula I (1-1) equivalent of zileuton.
In addition, sham colitis was induced, by intrarectal administration of 0-25 ml of 0.9°/0 saline, in 10 rats (control group). At day 1 and 3, and at weeks 1, 2, and 4, 10 rats from groups A, B, C and D were randomly selected for the assessment of eicosanoid release in the lumen of the colon by intracolonic dialysis. Rats were anaesthetised with 100 mg of intraperitoneal thiopental and intracolonic dialysis was performed using hydrated Visking seamless cellulose tubing (8/32, 6-3 mm diameter, 7 cm long; Medicell International, London) attached by a 10 cm polyurethane cannula to an external syringe. After inserting the entire cannula into the distal colon, the dialysis bag was filled with 1 ml of dialysis solution, consisting of 0.3°/o bovine serum albumin in a solution of 120 mmol/1 NaCl and 30 mmol/1 KHCO3 adjusted to pH 7.90. One hour later, the fluid was withdrawn and immediately stored at −30 C. The volume of the dialysate recovered at the end of the one hour period was higher than 90%. In the control group (n=10), an intracolonic dialysis was performed in the same way 24 hours after the sham colitis induction. The day after the dialysis was performed at weeks 1, 2, and 4, the same animals were given a distal colectomy under total anaesthesia with 100 mg of intraperitoneal thiopental, to assess colonic inflammation macroscopically and histologically. The excised colon was opened longitudinally, rinsed with normal saline, pinned out on a wax block, and assigned a code number. Mucosal damage was assessed macroscopically as described later. Afterwards, three tissue specimens (2×10 mm) were obtained from the colon. When no severely visible inflammation was present, the specimens were taken from the regions 1 cm, 3 cm, and 8 cm proximal to the anus. When visible lesions were present, the specimens were taken from the affected regions. Tissue samples were fixed in formaldehyde and routinely processed. […]

Row | SMILES | macroscopic damage score | all parameters measured by the score, mainly the development of strictures (at four weeks, compared with 5-ASA, zileuton and placebo)
1 | CC(c1cc2ccccc2s1)N(O)C(N)=O (stereo not shown) [zileuton] | 5.6 (0.7) | 
2 | Nc1ccc(O)c(C(=O)O)c1 [5-ASA] | 7.3 (0.7) | 
3 | CC/C=C\C/C=C\C/C=C\C/C=C\C/C=C\CCCC(=O)NC(=O)N(O)C(C)c1cc2ccccc2s1 (stereo not shown) [Formula I (1-1)] | 4.36 (0.6) | improved

Reference: US9394288B2, “Compositions and methods for the treatment of asthma and allergy” (CELLIX BIO PRIVATE LIMITED, priority 2012, dated 2016)
